≈ marks a conversion by molar mass, not a printed value.
Tests used:
Clostridioides difficile = assay: Antibacterial activity against Clostridioides difficile ATCC 700057 by CLSI method; format: functional
[1] = test system: Peptostreptococcus anaerobius; assay: Antibacterial activity against Peptostreptococcus anaerobius ATCC 27337 by CLSI method; format: functional
Bacteroides fragilis = assay: Antibacterial activity against Bacteroides fragilis ATCC 25285 by CLSI method; format: functional
[2] = test system: Prevotella melaninogenica; assay: Antibacterial activity against Prevotella melaninogenica JCM6325 by CLSI method; format: functional
Porphyromonas gingivalis = assay: Antibacterial activity against Porphyromonas gingivalis JCM8525 by CLSI method; format: functional
Staphylococcus aureus [3] = assay: Antibacterial activity against hospital-acquired Methicillin -resistant Staphylococcus aureus ATCC BAA-811 by CLSI method; format: functional
Staphylococcus aureus [4] = assay: Antibacterial activity against community-acquired Methicillin -resistant Staphylococcus aureus ATCC BAA-1556 by CLSI method; format: functional
DNA gyrase = DNA gyrase (Escherichia coli, UniProt P0AES4+P0AES6); assay: Inhibition of Escherichia coli DNA gyrase by measuring supercoiling activity incubated for 60 mins by fluorescence based assay; format: protein-complex assay
Escherichia coli [5] = assay: Antibacterial activity against Escherichia coli ATCC 25922 in presence of PAbetaN by CLSI method; format: functional
Staphylococcus aureus [6] = assay: Antibacterial activity against Staphylococcus aureus ATCC 29213 by CLSI method; format: functional
Enterococcus faecium [7] = assay: Antibacterial activity against vancomycin-resistant Enterococcus faecium ATCC 51559 by CLSI method; format: functional
Enterococcus faecalis [8] = assay: Antibacterial activity against Enterococcus faecalis ATCC 29212 by CLSI method; format: functional
Enterococcus faecalis [9] = assay: Antibacterial activity against vancomycin-resistant Enterococcus faecalis ATCC 51575 by CLSI method; format: functional
Streptococcus pneumoniae [10] = assay: Antibacterial activity against Streptococcus pneumoniae ATCC 49619 by CLSI method; format: functional
Streptococcus anginosus = assay: Antibacterial activity against Streptococcus anginosus ATCC 33397 by CLSI method; format: functional
[11] = target: DNA topoisomerase 2-alpha (Homo sapiens, UniProt P11388); assay: Inhibition of human topoisomerase 2alpha; format: ADME
[12] = Cytotoxicity against human HepG2 cells assessed as reduction in cell viability at 10 uM incubated for 48 hrs by CCK-8 assay
[13] = Cytotoxicity against human HepG2 cells assessed as reduction in cell viability at 50 uM incubated for 48 hrs by CCK-8 assay
[14] = Inhibition of Escherichia coli topoisomerase IV by measuring relaxation activity incubated for 30 mins by fluorescence based assay
Escherichia coli [15] = assay: Antibacterial activity against Escherichia coli ATCC 25922 by CLSI method; format: functional
Enterococcus faecium [16] = assay: Antibacterial activity against Enterococcus faecium ATCC 35667 by CLSI method; format: functional
Haemophilus influenzae = assay: Antibacterial activity against Haemophilus influenzae ATCC 43095 by CLSI method; format: functional
[17] = target: Voltage-gated inwardly rectifying potassium channel KCNH2 (Homo sapiens, UniProt Q12809); assay: Inhibition of human ERG expressed in CHO cells by Q-patch clamp assay
Fusobacterium nucleatum = assay: Antibacterial activity against Fusobacterium nucleatum JCM8532 by CLSI method; format: functional
Streptococcus pneumoniae [18] = assay: Antibacterial activity against genotype penicillin-resistant Streptococcus pneumoniae by CLSI method; format: functional

Chain of DNA topoisomerase 2-alpha (P11388 whole entry): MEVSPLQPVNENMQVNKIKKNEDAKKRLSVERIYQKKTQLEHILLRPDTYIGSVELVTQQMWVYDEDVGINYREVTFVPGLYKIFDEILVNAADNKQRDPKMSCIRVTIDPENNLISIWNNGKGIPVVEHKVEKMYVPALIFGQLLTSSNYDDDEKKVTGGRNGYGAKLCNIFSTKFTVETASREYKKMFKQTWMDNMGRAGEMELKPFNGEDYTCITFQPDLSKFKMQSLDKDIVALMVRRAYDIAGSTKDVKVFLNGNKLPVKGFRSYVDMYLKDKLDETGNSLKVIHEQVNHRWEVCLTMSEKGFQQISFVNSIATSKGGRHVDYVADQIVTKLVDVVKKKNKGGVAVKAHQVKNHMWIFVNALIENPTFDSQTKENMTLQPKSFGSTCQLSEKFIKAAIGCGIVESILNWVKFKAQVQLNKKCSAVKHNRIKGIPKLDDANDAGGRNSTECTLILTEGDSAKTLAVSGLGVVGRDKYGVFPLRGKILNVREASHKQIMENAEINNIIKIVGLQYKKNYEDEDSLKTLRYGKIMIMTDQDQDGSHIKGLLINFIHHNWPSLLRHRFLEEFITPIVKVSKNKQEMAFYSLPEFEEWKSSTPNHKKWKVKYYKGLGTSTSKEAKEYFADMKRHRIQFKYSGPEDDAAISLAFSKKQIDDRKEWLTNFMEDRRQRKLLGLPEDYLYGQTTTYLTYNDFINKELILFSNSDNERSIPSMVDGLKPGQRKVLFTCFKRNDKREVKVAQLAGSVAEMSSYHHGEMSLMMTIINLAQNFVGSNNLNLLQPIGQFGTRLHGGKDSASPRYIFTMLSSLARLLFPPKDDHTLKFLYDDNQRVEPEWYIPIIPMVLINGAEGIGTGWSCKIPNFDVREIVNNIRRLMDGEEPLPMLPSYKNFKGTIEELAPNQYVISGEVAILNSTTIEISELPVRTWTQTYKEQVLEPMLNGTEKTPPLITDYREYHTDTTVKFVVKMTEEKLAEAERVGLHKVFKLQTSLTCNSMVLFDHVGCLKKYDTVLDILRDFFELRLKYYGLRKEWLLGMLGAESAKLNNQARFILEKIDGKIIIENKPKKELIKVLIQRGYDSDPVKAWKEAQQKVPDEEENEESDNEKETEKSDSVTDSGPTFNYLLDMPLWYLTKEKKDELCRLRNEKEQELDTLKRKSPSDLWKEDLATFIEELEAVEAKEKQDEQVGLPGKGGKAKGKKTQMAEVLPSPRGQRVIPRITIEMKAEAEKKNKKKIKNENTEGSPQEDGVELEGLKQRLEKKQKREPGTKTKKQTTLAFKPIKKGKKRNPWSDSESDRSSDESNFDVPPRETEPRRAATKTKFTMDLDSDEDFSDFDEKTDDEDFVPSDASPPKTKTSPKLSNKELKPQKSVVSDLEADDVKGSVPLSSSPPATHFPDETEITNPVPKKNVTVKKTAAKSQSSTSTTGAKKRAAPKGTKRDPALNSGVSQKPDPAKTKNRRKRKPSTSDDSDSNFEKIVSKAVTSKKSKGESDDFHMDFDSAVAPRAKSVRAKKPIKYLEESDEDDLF
Chain of Voltage-gated inwardly rectifying potassium channel KCNH2 (Q12809 whole entry): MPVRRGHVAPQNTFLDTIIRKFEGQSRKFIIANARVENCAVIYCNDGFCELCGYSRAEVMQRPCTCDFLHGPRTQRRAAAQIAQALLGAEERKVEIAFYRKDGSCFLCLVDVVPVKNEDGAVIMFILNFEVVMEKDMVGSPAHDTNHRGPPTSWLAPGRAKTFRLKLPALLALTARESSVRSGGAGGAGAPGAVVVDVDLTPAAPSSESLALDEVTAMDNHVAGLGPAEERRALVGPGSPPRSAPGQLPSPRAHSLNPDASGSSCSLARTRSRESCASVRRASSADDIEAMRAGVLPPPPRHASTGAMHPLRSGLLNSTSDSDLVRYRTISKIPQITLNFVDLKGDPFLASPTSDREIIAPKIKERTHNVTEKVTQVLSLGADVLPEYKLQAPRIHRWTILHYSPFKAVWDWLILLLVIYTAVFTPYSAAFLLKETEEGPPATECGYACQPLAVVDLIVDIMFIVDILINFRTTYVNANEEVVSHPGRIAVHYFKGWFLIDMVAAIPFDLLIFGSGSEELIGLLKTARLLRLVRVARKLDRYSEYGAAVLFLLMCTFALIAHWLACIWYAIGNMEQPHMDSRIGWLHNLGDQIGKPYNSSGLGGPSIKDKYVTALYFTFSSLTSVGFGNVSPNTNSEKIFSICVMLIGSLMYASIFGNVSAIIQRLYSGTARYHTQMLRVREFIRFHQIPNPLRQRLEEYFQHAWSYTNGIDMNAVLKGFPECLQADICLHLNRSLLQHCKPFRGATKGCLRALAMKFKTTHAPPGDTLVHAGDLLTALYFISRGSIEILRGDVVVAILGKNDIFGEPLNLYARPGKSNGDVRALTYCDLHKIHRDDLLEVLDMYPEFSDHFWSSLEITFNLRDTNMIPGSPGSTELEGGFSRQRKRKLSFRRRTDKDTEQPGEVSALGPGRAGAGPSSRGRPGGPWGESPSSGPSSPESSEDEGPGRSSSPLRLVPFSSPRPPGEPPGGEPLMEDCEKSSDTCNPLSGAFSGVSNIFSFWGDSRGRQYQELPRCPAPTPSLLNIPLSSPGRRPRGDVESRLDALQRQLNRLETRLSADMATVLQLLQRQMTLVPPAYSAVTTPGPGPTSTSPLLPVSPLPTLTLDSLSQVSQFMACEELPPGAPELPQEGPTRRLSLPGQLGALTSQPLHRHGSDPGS

SMILES	MIC [1] [µg/mL]	MIC (Bacteroides fragilis) [µg/mL]	MIC [2] [µg/mL]	MIC (Porphyromonas gingivalis) [µg/mL]	MIC (Staphylococcus aureus [3]) [µg/mL]	MIC (Staphylococcus aureus [4]) [µg/mL]	IC50 (DNA gyrase) [µM]	MIC (Escherichia coli [5]) [µg/mL]	MIC (Staphylococcus aureus [6]) [µg/mL]	MIC (Enterococcus faecium [7]) [µg/mL]	MIC (Enterococcus faecalis [8]) [µg/mL]	MIC (Enterococcus faecalis [9]) [µg/mL]	MIC (Streptococcus pneumoniae [10]) [µg/mL]	MIC (Streptococcus anginosus) [µg/mL]	IC50 [11] [µM]	IC50 [14] [µM]	MIC (Escherichia coli [15]) [µg/mL]	MIC (Enterococcus faecium [16]) [µg/mL]	MIC (Haemophilus influenzae) [µg/mL]	other results
CCC[C@@H]1C[C@@H](C(=O)N[C@@H]([C@H]2O[C@H](SC)[C@H](O)[C@@H](O)[C@H]2O)[C@H](C)Cl)N(C)C1 [CLINDAMYCIN]	0.25 (≈ 0.588 µM)	1 (≈ 2.35 µM)	0.03 (≈ 0.0706 µM)	≤ 0.015																MIC (Clostridioides difficile): 8 µg/mL (≈ 18.8 µM)
CNc1cc(F)cc2cc(C(=O)Nc3ccc(CO)cc3CN(CCO)C3CCCCC3)c(=O)[nH]c12		> 32	> 32	4 (≈ 8.06 µM)	1 (≈ 2.01 µM)	2 (≈ 4.03 µM)	0.0016	≤ 0.03	1 (≈ 2.01 µM)	0.25 (≈ 0.503 µM)	0.03 (≈ 0.0604 µM)	0.015 (≈ 0.0302 µM)	0.06 (≈ 0.121 µM)	0.06 (≈ 0.121 µM)	> 100					cytotoxicity at 48 h, 10 µM ([12]; hepg2): -15.3%; cytotoxicity at 48 h, 50 µM ([13]; hepg2): 98.5%
CNc1cc(F)cc2cc(C(=O)Nc3ccc(C(=O)NS(=O)(=O)N(C)C)cc3)c(=O)[nH]c12							0.00043	≤ 0.015			0.03 (≈ 0.065 µM)		0.06 (≈ 0.13 µM)	0.12 (≈ 0.26 µM)		0.0519	16 (≈ 34.7 µM)	0.06 (≈ 0.13 µM)	0.06 (≈ 0.13 µM)	
CNc1cc(F)cc2cc(C(=O)Nc3ccc(C(=O)O)cc3CN3CCCCC3)c(=O)[nH]c12					4 (≈ 8.84 µM)	4 (≈ 8.84 µM)	0.00031	≤ 0.03	4 (≈ 8.84 µM)	0.015 (≈ 0.0332 µM)	0.015 (≈ 0.0332 µM)	0.015 (≈ 0.0332 µM)	0.03 (≈ 0.0663 µM)	0.03 (≈ 0.0663 µM)		0.0153	8 (≈ 17.7 µM)	0.03 (≈ 0.0663 µM)	0.06 (≈ 0.133 µM)	
CNc1cc(F)cc2c(O)c(C(=O)Nc3ccc(C(=O)NS(=O)(=O)N(C)C)cc3)c(=O)[nH]c12					1 (≈ 2.09 µM)	1 (≈ 2.09 µM)	0.00266	≤ 0.015		0.03 (≈ 0.0628 µM)	0.015 (≈ 0.0314 µM)	0.015 (≈ 0.0314 µM)	0.06 (≈ 0.126 µM)	0.12 (≈ 0.251 µM)	20.9	0.127	1 (≈ 2.09 µM)	0.03 (≈ 0.0628 µM)	≤ 0.015	IC50 [17]: > 30 µM; cytotoxicity at 48 h, 10 µM ([12]; HepG2 cells): 3.61%; cytotoxicity at 48 h, 50 µM ([13]; HepG2 cells): 38%
CO/N=C(\C(=O)N[C@@H]1C(=O)N2C(C(=O)O)=C(CSc3nc(=O)c(O)nn3C)CS[C@H]12)c1csc(N)n1 [CEFTRIAXONE]	0.5 (≈ 0.902 µM)	64 (≈ 115 µM)	1 (≈ 1.8 µM)	≤ 0.12																MIC (Fusobacterium nucleatum): 0.5 µg/mL (≈ 0.902 µM); MIC50 (Streptococcus pneumoniae [18]): 1 µg/mL (≈ 1.8 µM); MIC90 (Streptococcus pneumoniae [18]): 4 µg/mL (≈ 7.21 µM)
CNc1cc(F)cc2cc(C(=O)Nc3ccc(C(=O)O)cc3CN(CCO)C3CCCCC3)c(=O)[nH]c12.Cl	0.12	> 32	> 32	0.12	1	1	0.00029	≤ 0.03	0.5	0.015	0.008	0.008	0.015	0.008	> 100	0.0234	4	0.015	0.06	IC50 [17]: > 30 µM; cytotoxicity at 48 h, 10 µM ([12]; HepG2 cells): -2.04%; cytotoxicity at 48 h, 50 µM ([13]; HepG2 cells): 7.76%; MIC (Clostridioides difficile): 1 µg/mL; MIC (Fusobacterium nucleatum): 0.12 µg/mL

From ChEMBL document CHEMBL4699558, “Lead optimization of 8-(methylamino)-2-oxo-1,2-dihydroquinolines as bacterial type II topoisomerase inhibitors” (Bioorg Med Chem, 2020)
